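1) Cells in 96-well plates. 2) Compound, 48 h, 5 concentrations. 3) Linear interpolation between surrounding doses. 4) Unreached endpoint = highest concentration. TGI marks complete inhibition of growth.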

Test systems include CAKI-1 renal; CCRF-CEM leukemia; IGROV1 ovarian; OVCAR-3 ovarian; OVCAR-8 ovarian; PC-3 prostate; SF-539 CNS; SK-MEL-28 melanoma; SNB-19 CNS; UO-31 renal.
What all share (assay): NCI-60 cell line screen, 48 h

Consider `NCCNCCNc1ccc(NCCNCCN)c2c1C(=O)c1c(O)ccc(O)c1C2=O`, for which the TGI in the experiment on CAKI-1 renal, in the experiment with CCRF-CEM leukemia, with IGROV1 ovarian, in the experiment on OVCAR-3 ovarian, in the experiment with OVCAR-8 ovarian and in the experiment on PC-3 prostate was greater than 100 µM in each case. Also, the TGI in the experiment on SF-539 CNS, in the experiment with SK-MEL-28 melanoma, in the experiment with SNB-19 CNS and in the experiment on UO-31 renal was greater than 100 µM each time.
For the compound `COC(=O)/C=C1\CCCN1CCc1cc2c(cc1CC#N)OCO2`, the TGI was greater than 100 µM in the experiment with CAKI-1 renal; greater than 100 µM in the experiment with CCRF-CEM leukemia; greater than 100 µM in the experiment on IGROV1 ovarian; 69.1 µM in the experiment on OVCAR-3 ovarian; greater than 100 µM with OVCAR-8 ovarian; greater than 100 µM in the experiment on PC-3 prostate. For the same compound, the TGI in the experiment with SF-539 CNS, in the experiment with SK-MEL-28 melanoma, in the experiment with SNB-19 CNS and in the experiment with UO-31 renal was greater than 100 µM in each case.
Regarding `COC(=O)c1ccccc1C1=C([N+](=O)[O-])C(c2cccc(Br)c2)C(C#N)=C(N)O1` (centres undefined), the TGI with CCRF-CEM leukemia is 61.8 µM; in the experiment on IGROV1 ovarian, 77.6 µM; in the experiment with OVCAR-3 ovarian, 51.7 µM; with OVCAR-8 ovarian it was 45.1 µM; with PC-3 prostate, greater than 100 µM; with SF-539 CNS it was greater than 100 µM. Moreover, the TGI in the experiment with SK-MEL-28 melanoma and in the experiment with SNB-19 CNS was greater than 100 µM in each case.
`Nc1nc(OCC2CCCCC2)c2[nH]cnc2n1`: the TGI in the experiment on CAKI-1 renal is 58 µM; in the experiment with CCRF-CEM leukemia, 43.6 µM; in the experiment with IGROV1 ovarian, greater than 48.6 µM; in the experiment with OVCAR-3 ovarian, 35.7 µM; in the experiment on OVCAR-8 ovarian it was greater than 100 µM; in the experiment with PC-3 prostate it was 41.2 µM. Further, the TGI in the experiment with SF-539 CNS is 45 µM; in the experiment on SK-MEL-28 melanoma, 99.2 µM; with SNB-19 CNS it was greater than 100 µM; in the experiment with UO-31 renal, 38.2 µM.
As for `O=C(CSc1nc2ccc(I)cc2c(=O)n1Cc1ccccc1)NN1C(=O)c2ccccc2C1=O`, the TGI was found to be 33.5 µM with CAKI-1 renal; 64.2 µM in the experiment with IGROV1 ovarian; 28.6 µM in the experiment with OVCAR-3 ovarian; 34.1 µM in the experiment on OVCAR-8 ovarian; 19.6 µM with PC-3 prostate; 15.5 µM with SF-539 CNS. Also, the TGI in the experiment on SK-MEL-28 melanoma is 49.9 µM; with SNB-19 CNS, 57.3 µM; in the experiment on UO-31 renal, 6.14 µM.
As for `CCSc1nc(-c2cccs2)nc2ccc(I)cc12`, the TGI in the experiment with CAKI-1 renal, with CCRF-CEM leukemia, in the experiment on IGROV1 ovarian, in the experiment on OVCAR-3 ovarian, in the experiment with OVCAR-8 ovarian and in the experiment on PC-3 prostate was greater than 100 µM in each case. The TGI in the experiment on SF-539 CNS, in the experiment on SK-MEL-28 melanoma, in the experiment with SNB-19 CNS and in the experiment with UO-31 renal was greater than 100 µM in each case.
In the case of `CC(=O)OCC1OC(Oc2cc(C)c(O)cc2C/C=C(\C)CC/C=C(\C)C[C@@H](C=C(C)C)OC(C)=O)C(O)C(OC(C)=O)C1OC(C)=O` (some centres undefined), the TGI with CAKI-1 renal was greater than 50 µM; in the experiment on CCRF-CEM leukemia, 29.4 µM; in the experiment with IGROV1 ovarian it was greater than 50 µM; in the experiment on OVCAR-3 ovarian, greater than 50 µM; in the experiment on OVCAR-8 ovarian, greater than 50 µM; in the experiment with PC-3 prostate it was greater than 50 µM. Also, the TGI in the experiment with SK-MEL-28 melanoma, in the experiment on SNB-19 CNS and with UO-31 renal was greater than 50 µM in each case.
Take `COC(=O)NC1C(C)OC(OC2C/C=C(/C)C3C=CC4C(OC5CC(OC6CC(OC7CC(O)C(O)C(C)O7)C(OC7CC(O)C(OC)C(C)O7)C(C)O6)C(O)C(C)O5)C(C)CC(C)C4C3(C)/C(O)=C3\C(=O)OC4(CC(C)C(CO)=CC4/C=C\2C)C3=O)CC1(C)[N+](=O)[O-]` (centres undefined): the TGI was 41.1 µM in the experiment on CAKI-1 renal; 15.9 µM in the experiment with CCRF-CEM leukemia; 34 µM in the experiment on IGROV1 ovarian; 33.4 µM with OVCAR-8 ovarian; greater than 100 µM with PC-3 prostate; greater than 100 µM with SF-539 CNS. Besides, the TGI in the experiment on SK-MEL-28 melanoma was 81.3 µM; in the experiment on SNB-19 CNS, greater than 100 µM; with UO-31 renal it was 51.3 µM.
Regarding `C[n+]1c2ccccc2c(CNC(CS)C(=O)O)c2ccccc21` (centres undefined), the TGI with CAKI-1 renal came to 70.5 µM; in the experiment on CCRF-CEM leukemia, 62.4 µM; in the experiment with IGROV1 ovarian, 67.2 µM; in the experiment on OVCAR-3 ovarian, 62 µM; in the experiment on OVCAR-8 ovarian, 75 µM; in the experiment on SF-539 CNS, 35.8 µM. The TGI was greater than 100 µM with SNB-19 CNS and 58 µM with UO-31 renal.
Consider `O=c1c2cc(S(=O)(=O)O)ccc2nc(COc2ccc(Oc3ccc(Cl)cc3Cl)cc2)n1C(=S)Nc1ccc(Cl)cc1`, for which the TGI in the experiment with CAKI-1 renal is greater than 100 µM; in the experiment on CCRF-CEM leukemia it was greater than 100 µM; in the experiment with IGROV1 ovarian it was greater than 100 µM; in the experiment on OVCAR-3 ovarian, 51.7 µM; in the experiment with OVCAR-8 ovarian, 55.3 µM; in the experiment on PC-3 prostate it was greater than 100 µM. Further, the TGI in the experiment with SF-539 CNS is 31.9 µM; in the experiment on SNB-19 CNS, greater than 100 µM; with UO-31 renal, 29.7 µM.
As to `CCCCCCCN(CCCCCCC)CC(O)c1cc2ccccc2c2cc(Br)ccc12` (centres undefined), the TGI in the experiment on CAKI-1 renal was greater than 100 µM; in the experiment on CCRF-CEM leukemia, greater than 100 µM; in the experiment with IGROV1 ovarian, greater than 100 µM; in the experiment with OVCAR-3 ovarian it was 36.4 µM; with OVCAR-8 ovarian, greater than 100 µM; in the experiment with PC-3 prostate, greater than 100 µM. The TGI in the experiment with SF-539 CNS, in the experiment on SK-MEL-28 melanoma, in the experiment on SNB-19 CNS and in the experiment on UO-31 renal was greater than 100 µM each time.
For `O=C(NC(Cc1ccc(I)cc1)C(=O)O)c1ccc(Cl)cc1` (centres undefined), the TGI with CAKI-1 renal, with CCRF-CEM leukemia, in the experiment with IGROV1 ovarian, in the experiment on OVCAR-3 ovarian, in the experiment on OVCAR-8 ovarian and with SF-539 CNS was greater than 100 µM each time. Besides, the TGI with SK-MEL-28 melanoma, in the experiment with SNB-19 CNS and with UO-31 renal was greater than 100 µM in each case.
As to `N=C(N)SCc1cccc([N+](=O)[O-])c1`, the TGI in the experiment on CAKI-1 renal is 74.1 µM; with CCRF-CEM leukemia, greater than 85.9 µM; with IGROV1 ovarian, greater than 100 µM; in the experiment on OVCAR-3 ovarian, 39.9 µM; in the experiment on OVCAR-8 ovarian, greater than 67 µM; in the experiment with SF-539 CNS, 68.3 µM. In addition, the TGI in the experiment with SK-MEL-28 melanoma was 98.9 µM; in the experiment on UO-31 renal, greater than 77.8 µM.

Values taken from PubChem BioAssay (NCI).
